Measurements as given in patent US20020122813A1, “Insect attractants” (priority 1999, published 2002).
Entries after “also recorded” stand apart in the source; their conditions may differ.

Columns and labels:
Anopheles gambiae s.s. = assay: wind tunnel landing bioassay on heated glass cylinders with filter papers; type: in vivo; conditions: for landing response compared to water control, comparative bioassay of α-oxo-carboxylic acids: FIG. 5, 6 replicates
Protocol: Trials used either Aedes aegypti or the Tanzanian KWA strain of Anopheles gambiae s.s., both obtained from the London School of Hygiene and Tropical Medicine. The rearing and bioassay rooms were maintained at 27° C. ±2° and 70% RH ±10%. […] To circumvent this problem we concentrated on investigating the landing responses of An gambiae s.s. on heated glass cylinders treated with sweat and sweat extracts. The bioassay was conducted in a wind tunnel^9 that was connected to 2 identical flight chambers, stainless steel frames 1.0 m long, covered in thin gauge plastic tubing and sealed at both ends with mosquito netting, FIG. 1. Twenty, 5-8 day old An gambiae s.s. females were introduced into each flight chamber. The mosquitoes were activated with 2 pulses of carbon dioxide, diluted with filtered air to give pulses of 0.1% above background. Activated mosquitoes flew upwind and approached heated (34° C., human skin temperature) glass cylinders to which strips of filter paper were attached. […] All bioassays began on the 3rd hour of the night period (21.00 h). To collect sweat, strips of filter paper were strapped around the leg, just above the ankle, of a human volunteer for 24 h. A strip of sweat impregnated filter paper was placed onto one cylinder and a filter paper dampened with […] of distilled water was placed onto the second, the control, cylinder The bioassay was repeated 6 times, the position of the sweat and the control filter papers alternated between bioassays. […] The response to the sweat declined during the bioassay, FIG. 3A, and is probably due to the evaporation of behaviourally active volatiles.

Ae aegypti = conditions: structural activity relationship study of lactic acid analogues; cited from earlier work
Aedes aegypti = assay: wind tunnel landing bioassay on heated glass cylinders with filter papers; type: in vivo; conditions: in water at 1 μg/μl; FIG. 4
Protocol: Trials used either Aedes aegypti or the Tanzanian KWA strain of Anopheles gambiae s.s., both obtained from the London School of Hygiene and Tropical Medicine. The rearing and bioassay rooms were maintained at 27° C. ±2° and 70% RH ±10%. The rearing room was kept on a 12/12 light dark cycle of 170 Wm^−2 and 0.3 Wm^−2 respectively with a 30 minute dusk period of 0.5 Wm^−2 at the day night interface.
To circumvent this problem we concentrated on investigating the landing responses of An gambiae s.s. on heated glass cylinders treated with sweat and sweat extracts. The bioassay was conducted in a wind tunnel^9 that was connected to 2 identical flight chambers, stainless steel frames 1.0 m long, covered in thin gauge plastic tubing and sealed at both ends with mosquito netting, FIG. 1. Twenty, 5-8 day old An gambiae s.s. females were introduced into each flight chamber. The mosquitoes were activated with 2 pulses of carbon dioxide, diluted with filtered air to give pulses of 0.1% above background. Activated mosquitoes flew upwind and approached heated (34° C., human skin temperature) glass cylinders to which strips of filter paper were attached. The number of mosquitoes landing per minute on each filter paper was recorded for 10 min by infra-red sensitive video cameras situated downwind of the flight chambers. All bioassays began on the 3rd hour of the night period (21.00 h). […]

For `CCCC(=O)C(=O)O` [2-oxopentanoic acid], the “landing response compared to water control, comparative bioassay of α-oxo-carboxylic acids” value (Anopheles gambiae s.s.) was “greatest response”, the “time of peak of landing response” value (Anopheles gambiae s.s.; during 10 min bioassay) was 4 min and the “total number of landings (TNL)” value (Anopheles gambiae s.s.; in water at 1 μg/μl vs water control) was 352. The “landing response compared to control (significance)” value (Anopheles gambiae s.s.; in water at 1 μg/μl vs water control, P<0.001) was “did elicit significant levels of landings”, the “attractiveness relative to lactic acid” value (Ae aegypti) was “as attractive as lactic acid” and the “landing response (significance)” value (Aedes aegypti) was “elicited significant levels of landings; also recorded: did elicit significant levels of landings”.

In the case of `CC(C)C(=O)C(=O)O` [3-methyl,2-oxobutanoic acid], the “landing response compared to water control, comparative bioassay of α-oxo-carboxylic acids” value (Anopheles gambiae s.s.) was “did elicit significant levels of landings”.

With `CCO` [ethanol] the “total number of landings (TNL)” value (Anopheles gambiae s.s.; ethanol vs blank control) was 141 and the “landing response compared to control (significance)” value (Anopheles gambiae s.s.; ethanol vs blank control, P>0.05) was “not a significant difference”.

With `CC(O)C(=O)O` (stereo not drawn) [lactic acid, L(+) lactic acid (2-hydroxypropanoic), reference compound] the “total number of landings (TNL)” value (Anopheles gambiae s.s.; in ethanol at 0.2 μg/μl vs ethanol control) was 167 and the “landing response compared to control (significance)” value (Anopheles gambiae s.s.; in ethanol at 0.2 μg/μl vs ethanol control, P>0.05) was “did not elicit significant levels of landings”.

In the case of `CCC(=O)C(=O)O` [oxobutanoic acid], the “landing response compared to water control, comparative bioassay of α-oxo-carboxylic acids” value (Anopheles gambiae s.s.) was “did elicit significant levels of landings”.

In the case of `CC(=O)C(=O)O` [oxopropanoic acid], the “landing response compared to water control, comparative bioassay of α-oxo-carboxylic acids” value (Anopheles gambiae s.s.) was “did elicit significant levels of landings”.
